Patent US20080247987A1, “Block Copolymer Compositions and Uses Thereof” (ANGIOTECH INTERNATIONAL AG, priority 2005, published 2008)
Values after ≈ are worked out from the molar mass of the structure shown. Read-outs that look alike come from different tables or passages of the source.

How the values were obtained:
[1] = cited from earlier work
prostate tumors = conditions: via inhibition of angiogenesis; cited from earlier work
[2] = test system: human prostate cancer cell; conditions: in vitro; cited from earlier work
synoviocytes = conditions: cited from earlier work
[3] = test system: arthritis after anterior cruciate ligament transection; assay: Surgical transection of the anterior cruciate ligament (mechanical arthritis model); type: in vivo, Hartley Guinea pigs; conditions: introduced into the joint
Description: Hartley Guinea pigs subjected to surgical transaction of the anterior cruciate ligament represent a mechanical model for arthritis. Typically after the anterior cruciate is severed, the animals develop arthritis within several weeks.

AP-1 = conditions: via reduced AP-1 binding to DNA; cited from earlier work
[4] = test system: carrageenin-induced arthritis; assay: Inflammatory carrageenin-induced arthritis model; type: in vivo; conditions: rabbits
[5] = test system: normal chondrocytes and non-proliferating synoviocytes; conditions: cited from earlier work
physchem = conditions: organic solvent or mixture, thermodynamic from solid
Description: The phase separation of the PEG400-TMC/Gly(90/10)900 triblock copolymer from PEG 300 in the presence of water was evaluated to predict its behavior upon dilution in a largely aqueous physiological environment. […] The phase separation is expected to form a PEG 300-rich phase and a PEG400-TMC/Gly(90/10)900-rich phase, the former containing the highest proportion of water. […] Solubility in the PEG 300-rich phase was estimated from co-solvent studies of water/PEG 300 mixtures.

[6] = test system: collagen induced arthritis; conditions: animal model; cited from earlier work
[7] = test system: advanced breast, ovarian and non-small cell lung cancer; conditions: in vivo; cited from earlier work
angiogenesis = conditions: cited from earlier work
T-cell = conditions: cited from earlier work
neutrophil = conditions: cited from earlier work
prostate cancer [8] = conditions: in vivo; cited from earlier work
prostate cancer [9] = conditions: in vitro; cited from earlier work

**Q.** With `C[C@@H]1[C@H](O)[C@@H](C)/C=C/C=C/C=C/C=C/C=C/C=C/C=C/[C@H](O[C@@H]2O[C@H](C)[C@@H](O)[C@H](N)[C@@H]2O)C[C@@H]2O[C@](O)(C[C@@H](O)C[C@@H](O)[C@H](O)CC[C@@H](O)C[C@@H](O)CC(=O)O[C@H]1C)C[C@H](O)[C@H]2C(=O)O` [Amphotericin] as the compound, how does the “solubility in water” value ([1]; pH 6 to 7) read?
**A.** insoluble in water

**Q.** Which “solubility in water” value [1] does the source give for `O=C1c2c(O)cccc2Cc2cccc(O)c21` [Anthralin] here?
**A.** practically insoluble in water

**Q.** For `CC[C@@]1(O)C(=O)OCc2c1cc1n(c2=O)Cc2cc3ccccc3nc2-1` [Camptothecin], which solubility in water [1] is on record?
**A.** 0.001 to 0.002 mg/mL

**Q.** For `COc1cc(/C=C/C(=O)CC(=O)/C=C/c2ccc(O)c(OC)c2)ccc1O` [Curcumin], which “solubility in water” value [1] is on record?
**A.** practically insoluble in water

**Q.** With `O=c1c(-c2ccc(O)cc2)coc2cc(O)cc(O)c12` [Genistein] as the compound, how does the “solubility in water” value [1] read?
**A.** practically insoluble in water

**Q.** For `COc1ccc2c(c1)c(CC(=O)O)c(C)n2C(=O)c1ccc(Cl)cc1` [Indomethacin], which “solubility in water” value [1] is on record?
**A.** practically insoluble in water

**Q.** For `CN(C(=O)c1c(O)c2ccccc2n(C)c1=O)c1ccccc1` [Linomide], which “antitumor and antimetastatic effects” value (prostate tumors) is on record?
**A.** both antitumor and antimetastatic effects

**Q.** With `CC(=O)O[C@H]1C(=O)[C@@]2(C)[C@H]([C@H](OC(=O)c3ccccc3)[C@]3(O)C[C@H](OC(=O)[C@H](O)[C@@H](NC(=O)c4ccccc4)c4ccccc4)C(C)=C1C3(C)C)[C@]1(OC(C)=O)CO[C@@H]1C[C@@H]2O` [Paclitaxel] as the compound, how does the “prostate cancer cell growth” value [2] read?
**A.** inhibit human prostate cancer cell growth in vitro

**Q.** And the apoptosis in synoviocytes (synoviocytes)?
**A.** induces apoptosis in synoviocytes

**Q.** And the proliferation of synoviocytes (synoviocytes)?
**A.** prevents the proliferation of

**Q.** What about the “effect on arthritic process, cartilage and bone” value [3] of the same compound?
**A.** greatly retarded the arthritic process and protected not only the cartilage, but also the underlying bone, from breakdown

**Q.** And the solubility in water [1]?
**A.** 0.001 to 0.002 mg/mL

**Q.** What about the AP-1 transcription activity (AP-1) of the same compound?
**A.** inhibits AP-1 transcription activity

**Q.** What about the effect on cartilage [4] of the same compound?
**A.** demonstrated cartilage

**Q.** And the “toxicity to non-proliferating cells” value [5]?
**A.** non-toxic to non-proliferating cells

**Q.** What about the solubility (physchem) of the same compound?
**A.** 250 mg/mL (≈ 293 mM)

**Q.** And the collagen induced arthritis [6]?
**A.** inhibits collagen induced arthritis

**Q.** And the “efficacy against advanced cancers” value [7]?
**A.** shown efficacy against advanced breast, ovarian and non-small cell lung cancer

**Q.** And the angiogenesis (angiogenesis)?
**A.** potent inhibitory effect on angiogenesis

**Q.** What about the T-cell function (T-cell) of the same compound?
**A.** inhibits T-cell function

**Q.** What about the “T-cell response to stimuli” value (T-cell) of the same compound?
**A.** decreases T-cell response to stimuli

**Q.** And the neutrophil activation (neutrophil)?
**A.** inhibits neutrophil activation

**Q.** With `CC1=C(/C=C/C(C)=C/C=C/C(C)=C/C(=O)O)C(C)(C)CCC1` [Tretinoin] as the compound, how does the “solubility in water” value [1] read?
**A.** practically insoluble in water

**Q.** Which “efficacy against prostate cancer” value (prostate cancer [8]) does the source give for `C[C@]12CC[C@@H]3c4ccc(OC(=O)N(CCCl)CCCl)cc4CC[C@H]3[C@@H]1CC[C@@H]2O` [estramustine] here?
**A.** some efficacy against prostate cancer

**Q.** What about the “efficacy against prostate cancer” value (prostate cancer [9]) of the same compound?
**A.** some efficacy against prostate cancer

**Q.** Which results are given for `CC[C@]1(O)C[C@@H]2CN(CCc3c([nH]c4ccccc34)[C@@](C(=O)OC)(c3cc4c(cc3OC)N(C)[C@H]3[C@@](O)(C(=O)OC)[C@H](OC(C)=O)[C@]5(CC)C=CCN6CC[C@]43[C@@H]65)C2)C1` [vinblastine]?
**A.** efficacy against prostate cancer (prostate cancer [8]): some efficacy against prostate cancer; efficacy against prostate cancer (prostate cancer [9]): some efficacy against prostate cancer
